pIC50: −log10 of the molar value.
How the values were obtained:
HIV integrase = biological target: T1, HIV integrase (Human immunodeficiency virus type 1 group M subtype B, UniProt P04585); assay: Inhibition of strand transfer by HIV integrase; assay type: biochemical
T1 construct: HIV Integrase
Procedure: Assay for Inhibition of Strand Transfer by HIV Integrase
Inhibition of strand transfer was conducted according to Hazuda, D. J. et al. Nucleic Acids Res., 22, 1121 (1994), hereby incorporated by reference for these purposes.

HIV-1 integrase [1] = biological target: T2, HIV-1 integrase (Human immunodeficiency virus type 1 group M subtype B, UniProt P04585); assay: biochemical; parameters: HIV-1 integrase
Procedure: HIV Integrase Assay: Substrate Cleavage
An assay for trimming of 3' end of HIV long terminal repeat terminus by HIV-1 integrase was conducted according to LaFemina, E. R. et al., J. Virol. 10, 5624 (1991), herein incorporated by reference for these purposes. To assay inhibition of HIV integrase substrate cleavage, the reaction was conducted with inhibitor having various concentrations in the range of 0.1 to 100 μM.

HIV-1 integrase [2] = biological target: T2, HIV-1 integrase; assay: Assembly of HIV-1 integrase as catalytically active complex; assay type: biochemical; parameters: HIV-1 Integrase
Procedure: Assay for Assembly of HIV-1 Integrase as Catalytically Active Complex
Inhibition of assembly of HIV-1 Integrase was conducted according to Wolfe, A. L. et al., J. Virol. 70, 1424 (1996), herein incorporated by reference for these purposes.

SMILES | pIC50 (HIV integrase) | pIC50 (HIV-1 integrase [1]) | pIC50 (HIV-1 integrase [2])
Cc1[nH]cnc1C(=O)NNC1=Nc2ccc(Br)cc2C(c2ccccc2Cl)=NC1 [Compound VII] | 5.30 | 5.70 | 5.00
O=C(NNC1=Nc2ccccc2C(c2ccccc2)=NC1)c1cnccn1 [Compound VI] | 5.52 to 5.70 | 5.70 | 5.30
